From patent US20220312771A1, “BIOCIDAL COMPOSITE MATERIAL” (PENNOG LIMITED, priority 2019, published 2022)

Test system: Chlorella sp.
Assay: Growth of Chlorella sp. in Jaworskis Medium with different concentrations of copper
Assay type: cell-based
Settings: 14 days
Description: Fresh water algae Chlorella sp. cultivated at between 10° C. and 20° C. for 14 days on Jaworskis Medium (Table below) was inoculated into fresh, sterile Jaworskis Medium (prepared as per Table 11) containing copper sulphate solution and copper-containing soak solutions. The soak solution was obtained from the third soak of the second cycle of phototreated MSMCu from Example 3. The extent of growth of Chlorella sp. was observed after a further 14 days (Table 12).
After 14 days in different concentrations of copper.

Structure (SMILES): O=S(=O)([O-])[O-].[Cu+2] [Copper sulphate solution, copper sulphate]
- Growth of Chlorella sp., Abs 665 nm (copper concentration 1 μg/L): 0.137
- Growth of Chlorella sp., Abs 780 nm (copper concentration 1 μg/L): 0.118
- Growth of Chlorella sp., Abs 665 nm (copper concentration 2 μg/L): 0.143
- Growth of Chlorella sp., Abs 780 nm (copper concentration 2 μg/L): 0.128
- Growth of Chlorella sp., Abs 665 nm (copper concentration 5 μg/L): 0.103
- Growth of Chlorella sp., Abs 780 nm (copper concentration 5 μg/L): 0.096
- Growth of Chlorella sp., Abs 665 nm (copper concentration 7 μg/L): 0.081
- Growth of Chlorella sp., Abs 780 nm (copper concentration 7 μg/L): 0.077
- Growth of Chlorella sp., Abs 665 nm (copper concentration 9 μg/L): 0.092
- Growth of Chlorella sp., Abs 780 nm (copper concentration 9 μg/L): 0.077
